A word on the inhibition: it is the percentage by which the read-out fell short of the control.

The test system of one data set is TNF. Nature of the data set: Pre-screen of anti-TNF activity, cells + LPS (Table 2). It counts as cell-based.
For data set [1], the system named is serum TNF-α. As to the kind of experiment: LPS induced TNF-α release in Balb/c mice, treatment post LPS. Format: in vivo. Here is the method: (§1) The present invention has studied the ability of RSCL-0520 to exert protection against inflammatory agents in a mice (Balb/c) model. Balb/c (5-6 weeks) mice were injected with LPS (225 μg) intraperitoneally with and without pretreatment of RSCL-0520 (10 and 20 mg/kg). The compound was injected intraperitoneally 30 min before LPS treatment. The mice were monitored for 1 hr post LPS treatment. Untreated mice served as controls. Blood from retro-orbital plexus was collected under anesthesia 1 hr post LPS injection. Serum collected was analysed for TNF-α secretion using an ELISA detection kit.
Our results have more significance from the post LPS treatment of RSCL-0520. Here we have stimulated the inflammation process in mice with an injection of LPS (225 μg) intraperitoneally and 30 min post LPS, we have challenged the ability of RSCL-0520 at two different doses (10 mg/kg, 20 mg/kg) to inhibit the TNF-α secretion.

Data set [2] addresses T1, TLR4 (Homo sapiens, UniProt O00206).
T1 construct: endogenous in cells
Nature of the data set: TLR4 ligand induced TNF-α secretion in THP-1 cells (ELISA). It counts as cell-based. The following applies: 1 hr pretreatment, TLR4 ligand 750 ng/ml, 24 hrs. Here is the method: (§2) The present invention has checked the effect of various TLR ligands on THP-1 monocytes, PBMCs and their ability to activate and release TNF-α. For this purpose about 9 TLR ligands were used. These ligands were obtained from Apotech Cat; APO-54N-018-K101 and assayed for TNF-α release in culture supernatants. THP-1 (FIG. 1a) and PBMCs (2×10^5 cells/well) (FIG. 1b) were plated in 96-well plate. The cells were pretreated with RSCL-0520 in DMSO 1 hr prior to TLR ligand treatment. Following 1 hr pre-treatment, the cells were treated with TLR ligands [TLR2, TLR5 and TLR6-75 ng/ml each, TLR3-75 μg/ml, TLR4-750 ng/ml, TLR7, TLR8 and TLR9-7.5 μg/ml) for 24 hrs. The culture supernatant were collected after the stipulated time and assayed for TNF-α release using a Duoset Enzyme-Linked ImmunoSorbent Assay (ELISA) detection Kit (R&D systems, MN 55413, USA; Cat: DY-210 E). Simultaneously, supernatants from cells treated with ligands without RSCL-0520 pre-treatment and RSCL-0520 without ligand treatment were collected which served as respective controls.
(In general: An ELISA detects its analyte on a solid surface through an enzyme-linked reagent.)

A further data set deals with THP-1 cells. Nature of the data set: Toxicity to THP-1 cells by MTT assay. As to conditions: analyzed in tandem with TNF-α assay. It counts as cell-based, human. The text has this: The toxicity of RSCL-0520 (FIG. 2b) was also by treating cells with RSCL-0520 by MTT assay. […] The viability of the cells (analyzed in tandem by MTT) was not affected by RSCL-0520 indicating its non-toxic nature.
In general terms: Tetrazolium dyes change colour on reduction, which living cells bring about.

Data set [3] concerns serum TNF-α. As to the kind of experiment: LPS induced TNF-α release in Balb/c mice, pre-treatment. The following applies: serum 1 hr post LPS. It counts as in vivo. The procedure: as §1
Data set [4] has as its target T1, TLR4. As to the kind of experiment: TLR4 ligand induced TNF-α secretion in PBMCs (ELISA). Format: cell-based. The following applies: 1 hr pretreatment, TLR4 ligand 750 ng/ml, 24 hrs. Here is the method:
as §2

T1 sequence (O00206 24-839): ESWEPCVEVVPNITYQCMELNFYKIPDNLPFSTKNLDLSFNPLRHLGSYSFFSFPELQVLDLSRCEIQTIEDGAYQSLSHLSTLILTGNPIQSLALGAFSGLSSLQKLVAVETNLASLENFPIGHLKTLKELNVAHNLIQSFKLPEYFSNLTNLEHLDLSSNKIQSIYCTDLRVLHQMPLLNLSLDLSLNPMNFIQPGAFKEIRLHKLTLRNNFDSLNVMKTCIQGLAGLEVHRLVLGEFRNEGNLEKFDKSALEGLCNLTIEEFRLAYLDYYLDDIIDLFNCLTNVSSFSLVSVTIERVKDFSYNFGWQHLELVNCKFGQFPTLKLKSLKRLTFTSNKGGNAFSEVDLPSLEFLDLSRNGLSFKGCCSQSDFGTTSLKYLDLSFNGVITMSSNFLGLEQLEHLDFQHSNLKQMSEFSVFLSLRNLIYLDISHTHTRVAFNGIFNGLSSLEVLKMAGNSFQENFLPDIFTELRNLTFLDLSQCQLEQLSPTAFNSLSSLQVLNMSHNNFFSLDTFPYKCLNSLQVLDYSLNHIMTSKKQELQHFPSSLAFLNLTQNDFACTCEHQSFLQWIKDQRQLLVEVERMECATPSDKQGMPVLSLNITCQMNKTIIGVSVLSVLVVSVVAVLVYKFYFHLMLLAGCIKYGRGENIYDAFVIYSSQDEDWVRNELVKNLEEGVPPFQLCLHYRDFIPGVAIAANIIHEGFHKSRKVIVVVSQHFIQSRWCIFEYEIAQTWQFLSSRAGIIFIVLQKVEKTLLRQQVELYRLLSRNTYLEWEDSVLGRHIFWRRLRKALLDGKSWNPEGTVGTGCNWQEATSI
T1 sequence (Q9Y6Y9 17-160 partner limits assumed): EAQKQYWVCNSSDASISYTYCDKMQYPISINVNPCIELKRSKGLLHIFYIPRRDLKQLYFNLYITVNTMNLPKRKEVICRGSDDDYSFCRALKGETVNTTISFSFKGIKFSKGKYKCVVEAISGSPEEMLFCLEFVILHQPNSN

Take `COc1cc2c(c(OC(C)=O)c1)-c1ccc(OC)c(OC(C)=O)c1CC2` [RSCL-0521, 1,5-diacetoxy-2,7-dimethoxy-9,10-dihydrophenanthrene]: in the data set with TNF (Cells + 1 μM + LPS), the inhibition at 1 µM stood at 0%. Besides, the inhibition at 10 µM in the data set with TNF (Cells + 10 μM + LPS) turned out to be 13%. In addition, the inhibition at 50 µM with TNF (Cells + 50 μM + LPS) stood at 76%. The inhibition at 100 µM in the data set with TNF (Cells + 100 μM + LPS) is 92%.
For `COc1c(O)cc2ccc3cc(O)ccc3c2c1OC` [RSCL-0518, 2,7-dihydroxy-3,4-dimethoxyphenanthrene], the inhibition at 1 µM with TNF (Cells + 1 μM + LPS) is 0%. Besides, the inhibition at 10 µM in the data set with TNF (Cells + 10 μM + LPS) is 0%. Besides, the inhibition at 50 µM with TNF (Cells + 50 μM + LPS) came out at 39%. Further, in the data set with TNF (Cells + 100 μM + LPS), the inhibition at 100 µM is 87%.
For the molecule `COc1cc(OCc2ccccc2)c2c(ccc3c(OCc4ccccc4)c(OC)ccc32)c1` [RSCL-0638, 1,5-dibenzyloxy-2,7-dimethoxy phenanthrene], in the data set with TNF (Cells + 1 μM + LPS), the inhibition at 1 µM was 0%. Also, in the data set on TNF (Cells + 10 μM + LPS), the inhibition at 10 µM was 0%. The inhibition at 50 µM in the data set with TNF (Cells + 50 μM + LPS) was found to be 0%. The inhibition at 100 µM in the data set with TNF (Cells + 100 μM + LPS) was 0%.
Regarding `COc1c(OC(=O)/C=C/c2ccc(OC(C)=O)c(OC(C)=O)c2)cc2ccc3cc(OC(=O)/C=C/c4ccc(OC(C)=O)c(OC(C)=O)c4)ccc3c2c1OC` [RSCL-0522, 3,4-dimethoxyphenanthrene-2,7-bis-[(2E)-3-[3,4-bis(acetyloxy)phenyl] acrylate], the “% TNF Inhibition” value came out at 0% in the data set on TNF (Cells + 1 μM + LPS), 12% in the data set on TNF (Cells + 10 μM + LPS), 37% in the data set on TNF (Cells + 50 μM + LPS) and 34% in the data set on TNF (Cells + 100 μM + LPS).
As for `COc1c(OC(C)=O)cc2ccc3cc(OC(C)=O)ccc3c2c1OC` [RSCL-0519, 2,7-diacetoxy-3,4-dimethoxyphenanthrene], in the data set on TNF (Cells + 1 μM + LPS), the inhibition at 1 µM amounted to 0%. In addition, in the data set with TNF (Cells + 10 μM + LPS), the inhibition at 10 µM turned out to be 0%. In addition, the inhibition at 50 µM with TNF (Cells + 50 μM + LPS) came out at 21%. The inhibition at 100 µM in the data set with TNF (Cells + 100 μM + LPS) worked out at 72%.
Turning to `COc1cc(O)c2c(c1)CCc1c-2ccc(OC)c1O` [RSCL-0520, 1,5-dihydroxy-2,7-dimethoxy-9,10-dihydrophenanthrene], in the data set on TNF (Cells + 1 μM + LPS), the inhibition at 1 µM is 4%. Also, the inhibition at 10 µM in the data set with TNF (Cells + 10 μM + LPS) was found to be 40%. For the same molecule, in the data set on TNF (Cells + 50 μM + LPS), the inhibition at 50 µM worked out at 95%. Moreover, the inhibition at 100 µM in the data set with TNF (Cells + 100 μM + LPS) was found to be 100%. In addition, the “inhibition of TNF secretion” value with serum TNF-α [1] (10 mg/kg given 30 min post LPS 225 μg i.p.) was ~38%; in the data set with serum TNF-α [1] (20 mg/kg given 30 min post LPS 225 μg i.p.) it was 49%. The “decrease of TNF-α production” value on TLR4 [2] and on TLR4 [4] was ~50% throughout. The “viability of the cells (MTT)” value in the data set on THP-1 cells is recorded as “not affected”. For the same molecule, the results for the “reduction of serum TNF production” value in the data set on serum TNF-α [3] (10 mg/kg i.p. 30 min before LPS 225 μg i.p.) and in the data set on serum TNF-α [3] (20 mg/kg i.p. 30 min before LPS 225 μg i.p.) were ~66% and ~70%, respectively.
Take `COc1ccc2c(ccc3cc(OC)c(OC)c(OC)c32)c1` [RSCL-0575, 2,3,4,7-tetramethoxyphenanthrene]: the inhibition at 1 µM in the data set with TNF (Cells + 1 μM + LPS) came to 26%. Besides, the inhibition at 10 µM in the data set on TNF (Cells + 10 μM + LPS) turned out to be 33%. In addition, the inhibition at 50 µM with TNF (Cells + 50 μM + LPS) amounted to 32%. The inhibition at 100 µM in the data set with TNF (Cells + 100 μM + LPS) turned out to be 49%.

The values above are taken from patent publication US20090215908A1, “TOLL LIKE RECEPTOR (TLR) SIGNALING ANTAGONIST” (RELIANCE LIFE SCIENCES PVT. LTD., priority 2007, published 2009).
